The values that follow come from ChEMBL document CHEMBL3046170, “Docking, synthesis, and pharmacological investigation of novel substituted thiazole derivatives as non-carboxylic, anti-inflammatory, and analgesic agents” (Med Chem Res, 2013).

The subject of one series is Mus musculus. As to the kind of experiment: Analgesic activity in Albino Mus musculus (mouse) assessed as inhibition of acetic acid-induced abdominal writhings at 25 mg/kg, po administered 50 min prior to acetic acid injection measured after 10 min. The class given is functional. The following applies: Abdomen. A general note: Writhing tests count abdominal constrictions after an irritant is injected.

Series [1] concerns Rattus norvegicus. As to the kind of experiment: Anti-inflammatory activity in carrageenan-induced paw edema Wistar albino Rattus norvegicus (rat) model assessed as change in paw volume at 25 mg/kg, po administered 1 hr prior to carrageenan-challenge measured after 1 hr by plethysmometer (reference value: 0.900 +/-0.03 ml). The class given is functional. A general note: Carrageenan injected into the paw causes an acute inflammation.

In series [2] the test system is Rattus norvegicus. Kind of series: Anti-inflammatory activity in Wistar albino Rattus norvegicus (rat) assessed as inhibition of carrageenan-induced paw edema at 25 mg/kg, po administered 1 hr prior to carrageenan-challenge measured after 3 hr by plethysmometer. The series is classed as functional.
In series [3] the test system is Rattus norvegicus. Kind of series: Anti-inflammatory activity in carrageenan-induced paw edema Wistar albino Rattus norvegicus (rat) model assessed as change in paw volume at 25 mg/kg, po administered 1 hr prior to carrageenan-challenge measured after 3 hr by plethysmometer (reference value: 1.200 +/-0.08 ml). The series is classed as functional.
For series [4], the system named is Rattus norvegicus. Kind of series: Anti-inflammatory activity in Wistar albino Rattus norvegicus (rat) assessed as inhibition of carrageenan-induced paw edema at 25 mg/kg, po administered 1 hr prior to carrageenan-challenge measured after 2 hr by plethysmometer. The class given is functional.
The test system of series [5] is Rattus norvegicus. Kind of series: Anti-inflammatory activity in carrageenan-induced paw edema Wistar albino Rattus norvegicus (rat) model assessed as change in paw volume at 25 mg/kg, po administered 1 hr prior to carrageenan-challenge measured after 2 hr by plethysmometer (reference value: 1.110 +/-0.07 ml). The class given is functional.
The test system of series [6] is Rattus norvegicus. As to the kind of experiment: Anti-inflammatory activity in Wistar albino Rattus norvegicus (rat) assessed as inhibition of carrageenan-induced paw edema at 25 mg/kg, po administered 1 hr prior to carrageenan-challenge measured after 1 hr by plethysmometer. The class given is functional.
Series [7] has as its system Rattus norvegicus. As to the kind of experiment: Gastrointestinal toxicity in Wistar albino Rattus norvegicus (rat) stress model assessed as ulcerogenicity index at 25 mg/kg/day, po for 4 days measured on day 5 relative to diclofenac sodium. The series is classed as organism-based. Also on record: route oral. The following applies: in vivo, 96 h.
For series [8], the system named is Rattus norvegicus. Kind of series: Gastrointestinal toxicity in Wistar albino Rattus norvegicus (rat) stress model assessed as ulcerogenicity index at 25 mg/kg/day, po for 4 days measured on day 5. The series is classed as organism-based. Also noted: route oral. The settings on record: in vivo, 96 h.

With `Nn1c(-c2csc(-c3ccccc3)n2)n[nH]c1=O`, the inhibition in vivo (usually the relative decrease from the control value, in per cent) at 25 mg/kg in the series with Mus musculus worked out at 19.7%; in the series on Rattus norvegicus [2] it was 19%; in the series with Rattus norvegicus [4], 23.1%; with Rattus norvegicus [6], 15.2%. For the same compound, the figures for the Activity in the series with Rattus norvegicus [1], with Rattus norvegicus [3] and in the series with Rattus norvegicus [5] were 0.844 mL, 1.074 mL and 0.979 mL, respectively.
Turning to `Sc1nnc(-c2csc(-c3ccccc3)n2)o1`, the inhibition in vivo at 25 mg/kg with Mus musculus is 58.1%; in the series on Rattus norvegicus [2] it was 50.8%; with Rattus norvegicus [4], 53.8%; in the series with Rattus norvegicus [6] it was 37.9%. Also, the Activity in the series on Rattus norvegicus [7] stood at 10%; in the series with Rattus norvegicus [1] it was 0.735 mL; with Rattus norvegicus [3], 0.84 mL; in the series with Rattus norvegicus [5], 0.78 mL. Moreover, the UI with Rattus norvegicus [8] stood at 0.52.
As to `c1ccc(-c2nc(-c3nnc(SCCN4CCOCC4)o3)cs2)cc1`, the inhibition in vivo at 25 mg/kg turned out to be 21.8% with Mus musculus, 21.6% in the series on Rattus norvegicus [2], 23.5% in the series on Rattus norvegicus [4] and 14.5% with Rattus norvegicus [6]. Besides, the Activity with Rattus norvegicus [1] amounted to 0.864 mL; in the series on Rattus norvegicus [3], 1.076 mL; with Rattus norvegicus [5], 0.995 mL.
`CN(C)CCSc1nnc(-c2csc(-c3ccccc3)n2)o1`: the inhibition in vivo at 25 mg/kg came to 18.6% with Mus musculus, 25.9% in the series with Rattus norvegicus [2], 31.1% in the series on Rattus norvegicus [4] and 22.7% with Rattus norvegicus [6]. The Activity with Rattus norvegicus [1] was determined as 0.787 mL; in the series on Rattus norvegicus [3] it was 0.999 mL; with Rattus norvegicus [5], 0.904 mL.
As to `S=c1oc(-c2csc(-c3ccccc3)n2)nn1CN1CCCCC1`, the inhibition in vivo at 25 mg/kg in the series on Mus musculus was determined as 58.7%; with Rattus norvegicus [2], 55.5%; in the series with Rattus norvegicus [4], 57.4%; in the series with Rattus norvegicus [6], 44.8%. The Activity was 10% in the series with Rattus norvegicus [7], 0.764 mL with Rattus norvegicus [1], 0.862 mL with Rattus norvegicus [3] and 0.812 mL in the series on Rattus norvegicus [5]. For the same compound, the UI in the series with Rattus norvegicus [8] turned out to be 0.54.
For the compound `CCOC(=O)c1cnn(C(=O)c2csc(-c3ccccc3)n2)c1N`, the inhibition in vivo at 25 mg/kg with Mus musculus was 61.2%; in the series on Rattus norvegicus [2] it was 60.3%; in the series on Rattus norvegicus [4], 63%; with Rattus norvegicus [6] it was 45.1%. Also, the Activity in the series with Rattus norvegicus [7] is 10%; with Rattus norvegicus [1], 0.721 mL; in the series on Rattus norvegicus [3] it was 0.79 mL; in the series with Rattus norvegicus [5], 0.74 mL. In the series with Rattus norvegicus [8], the UI is on record as 0.6.
`Nc1cc(-c2ccccc2)nn1C(=O)c1csc(-c2ccccc2)n1`: the inhibition in vivo at 25 mg/kg in the series with Mus musculus turned out to be 60.1%; with Rattus norvegicus [2], 55.2%; in the series on Rattus norvegicus [4], 60.5%; with Rattus norvegicus [6], 42.1%. Also, the Activity is 10% in the series with Rattus norvegicus [7], 0.851 mL in the series on Rattus norvegicus [1], 0.942 mL in the series on Rattus norvegicus [3] and 0.873 mL in the series on Rattus norvegicus [5]. Besides, the UI in the series with Rattus norvegicus [8] came out at 0.62.
For `c1ccc(-c2nc(-c3nnn[nH]3)cs2)cc1`, the inhibition in vivo at 25 mg/kg in the series with Mus musculus worked out at 16.5%; with Rattus norvegicus [2], 40.4%; in the series with Rattus norvegicus [4], 38.1%; in the series with Rattus norvegicus [6] it was 30.8%. Also, the Activity with Rattus norvegicus [1] was found to be 0.825 mL; with Rattus norvegicus [3], 0.935 mL; in the series on Rattus norvegicus [5] it was 0.885 mL.
With `c1ccc(-c2nc(-c3nnco3)cs2)cc1`, the inhibition in vivo at 25 mg/kg with Mus musculus was determined as 18.1%; in the series on Rattus norvegicus [2] it was 27%; with Rattus norvegicus [4] it was 31.5%; in the series on Rattus norvegicus [6], 24.2%. In addition, the Activity with Rattus norvegicus [1] is 0.842 mL; with Rattus norvegicus [3], 1.052 mL; with Rattus norvegicus [5], 0.962 mL.
Take `Nc1nnc(-c2csc(-c3ccccc3)n2)o1`: the inhibition in vivo at 25 mg/kg amounted to 20.3% in the series with Mus musculus, 21.4% in the series with Rattus norvegicus [2], 25.5% with Rattus norvegicus [4] and 18.2% in the series on Rattus norvegicus [6]. In addition, the Activity with Rattus norvegicus [1] turned out to be 0.88 mL; in the series on Rattus norvegicus [3] it was 1.105 mL; in the series on Rattus norvegicus [5], 1.012 mL.
In the case of `O=c1[nH]nc(-c2csc(-c3ccccc3)n2)o1`, the inhibition in vivo at 25 mg/kg came to 42.2% in the series on Mus musculus, 48.4% in the series with Rattus norvegicus [2], 49.1% with Rattus norvegicus [4] and 34.8% in the series with Rattus norvegicus [6]. For the same compound, the Activity in the series with Rattus norvegicus [7] turned out to be 10%; in the series with Rattus norvegicus [1] it was 0.825 mL; in the series with Rattus norvegicus [3] it was 0.935 mL; with Rattus norvegicus [5] it was 0.885 mL. Also, in the series with Rattus norvegicus [8], the UI is 0.44.
With `O=C([O-])Cc1ccccc1Nc1c(Cl)cccc1Cl.[Na+]` [DICLOFENAC SODIUM], the inhibition in vivo at 25 mg/kg with Mus musculus stood at 58%; in the series on Rattus norvegicus [2], 54.9%; in the series on Rattus norvegicus [4], 56.7%; in the series with Rattus norvegicus [6], 40.6%. In addition, the Activity in the series with Rattus norvegicus [1] was 0.762 mL; with Rattus norvegicus [3], 0.85 mL; in the series on Rattus norvegicus [5] it was 0.8 mL. In the series on Rattus norvegicus [8], the UI was determined as 4.67.
